Source: PubChem BioAssay AID1963978 (Molecular Pharmacology Branch, DTP, NCI, 2024)

Tested on: 616215-338-R-J1-PDC spheroids with HUVEC/MSC, viability
Test: Anticancer human tumor 616215-338-R-J1-PDC patient-derived colon adenocarcinoma cell line growth inhibition [PI3K]
Conditions: for IC50: curve of first compound; for viability, T/C: stronger effect = lower value
Procedure, shortened: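 Three cell types, namely tumor cells, endothelial cells and mesenchymal stem cells, formed each spheroid. Combinations with four PI3K inhibitors were screened at clinically achievable concentrations decreasing by half-log, and spheroid viability was recorded.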

[1] = second compound 0.00316 µM, first compound 0.0316 µM
[2] = second compound 0.00316 µM, first compound 0.1 µM
[3] = second compound 0.00316 µM, first compound 0.316 µM
[4] = second compound 0.00316 µM, first compound 1 µM
[5] = second compound 0.00316 µM, first compound 3.16 µM
[6] = second compound 0.00316 µM, first compound 10 µM
[7] = second compound 0.01 µM, first compound 0.0316 µM
[8] = second compound 0.01 µM, first compound 0.1 µM
[9] = second compound 0.01 µM, first compound 0.316 µM
[10] = second compound 0.01 µM, first compound 1 µM
[11] = second compound 0.01 µM, first compound 3.16 µM
[12] = second compound 0.01 µM, first compound 10 µM
[13] = second compound 0.0316 µM, first compound 0.0316 µM
[14] = second compound 0.0316 µM, first compound 0.1 µM
[15] = second compound 0.0316 µM, first compound 0.316 µM
[16] = second compound 0.0316 µM, first compound 1 µM
[17] = second compound 0.0316 µM, first compound 3.16 µM
[18] = second compound 0.0316 µM, first compound 10 µM
[19] = second compound 0.1 µM, first compound 0.0316 µM
[20] = second compound 0.1 µM, first compound 0.1 µM
[21] = second compound 0.1 µM, first compound 0.316 µM
[22] = second compound 0.1 µM, first compound 1 µM
[23] = second compound 0.1 µM, first compound 3.16 µM
[24] = second compound 0.1 µM, first compound 10 µM
[25] = second compound 0.316 µM, first compound 0.0316 µM
[26] = second compound 0.316 µM, first compound 0.1 µM
[27] = second compound 0.316 µM, first compound 0.316 µM
[28] = second compound 0.316 µM, first compound 1 µM
[29] = second compound 0.316 µM, first compound 3.16 µM
[30] = second compound 0.316 µM, first compound 10 µM
[31] = second compound 1 µM, first compound 0.0316 µM
[32] = second compound 1 µM, first compound 0.1 µM
[33] = second compound 1 µM, first compound 0.316 µM
[34] = second compound 1 µM, first compound 1 µM
[35] = second compound 1 µM, first compound 3.16 µM
[36] = second compound 1 µM, first compound 10 µM
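Also: spheroids exposed to agents for seven days before the viability read.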

Q: What does the source list for `CC1(C)CCC(CN2CCN(c3ccc(C(=O)NS(=O)(=O)c4ccc(NCC5CCOCC5)c([N+](=O)[O-])c4)c(Oc4cnc5[nH]ccc5c4)c3)CC2)=C(c2ccc(Cl)cc2)C1` + COc1c(OCCCN2CCOCC2)ccc2c3n(c(=NC(=O)c4cnc(N)nc4)nc12)CCN3?
A: IC50 (second compound 0.00316 µM): > 10000 nM; IC50 (second compound 0.01 µM): > 10000 nM; IC50 (second compound 0.0316 µM): > 10000 nM; IC50 (second compound 0.1 µM): > 10000 nM; IC50 (second compound 0.316 µM): < 31.6 nM; IC50 (second compound 1 µM): < 31.6 nM; viability, T/C [1]: 94%; viability, T/C [2]: 103%; viability, T/C [3]: 109%; viability, T/C [4]: 99.7%; viability, T/C [5]: 88.7%; viability, T/C [6]: 95.2%; viability, T/C [7]: 84.7%; viability, T/C [8]: 95.1%; viability, T/C [9]: 98.2%; viability, T/C [10]: 98.7%; viability, T/C [11]: 84.2%; viability, T/C [12]: 96.8%; viability, T/C [13]: 96.8%; viability, T/C [14]: 99.4%; viability, T/C [15]: 100%; viability, T/C [16]: 102%; viability, T/C [17]: 93.1%; viability, T/C [18]: 109%; viability, T/C [19]: 96.1%; viability, T/C [20]: 93.6%; viability, T/C [21]: 107%; viability, T/C [22]: 87.8%; viability, T/C [23]: 83%; viability, T/C [24]: 95.2%; viability, T/C [25]: 47.4%; viability, T/C [26]: 41.2%; viability, T/C [27]: 45.5%; viability, T/C [28]: 42.5%; viability, T/C [29]: 27.6%; viability, T/C [30]: 33.2%; viability, T/C [31]: 24.3%; viability, T/C [32]: 24.4%; viability, T/C [33]: 25.5%; viability, T/C [34]: 21%; viability, T/C [35]: 13.2%; viability, T/C [36]: 30%

Q: `C[C@@H](NC(=O)c1ncnc(N)c1Cl)c1ncc(C(=O)Nc2cc(C(F)(F)F)c(Cl)cn2)s1` + COc1c(OCCCN2CCOCC2)ccc2c3n(c(=NC(=O)c4cnc(N)nc4)nc12)CCN3 was tested. Which IC50 (second compound 0.00316 µM) did it give?
A: > 10000 nM

Q: What about the IC50 (second compound 0.01 µM) of the same molecule?
A: > 10000 nM

Q: What about the IC50 (second compound 0.0316 µM) of the same molecule?
A: > 10000 nM

Q: What about the IC50 (second compound 0.1 µM) of the same molecule?
A: 6860 nM

Q: And the IC50 (second compound 0.316 µM)?
A: 72 nM

Q: And the IC50 (second compound 1 µM)?
A: < 31.6 nM

Q: What about the viability, T/C [1] of the same molecule?
A: 94.6%

Q: What about the viability, T/C [2] of the same molecule?
A: 117%

Q: What about the viability, T/C [3] of the same molecule?
A: 117%

Q: What about the viability, T/C [4] of the same molecule?
A: 109%

Q: What about the viability, T/C [5] of the same molecule?
A: 104%

Q: And the viability, T/C [6]?
A: 80.2%

Q: What about the viability, T/C [7] of the same molecule?
A: 96.3%

Q: And the viability, T/C [8]?
A: 102%

Q: And the viability, T/C [9]?
A: 116%

Q: And the viability, T/C [10]?
A: 115%

Q: What about the viability, T/C [11] of the same molecule?
A: 112%

Q: And the viability, T/C [12]?
A: 89.3%

Q: And the viability, T/C [13]?
A: 97.9%

Q: What about the viability, T/C [14] of the same molecule?
A: 106%

Q: And the viability, T/C [15]?
A: 106%

Q: And the viability, T/C [16]?
A: 113%

Q: And the viability, T/C [17]?
A: 91.2%

Q: And the viability, T/C [18]?
A: 53.3%

Q: What about the viability, T/C [19] of the same molecule?
A: 114%

Q: What about the viability, T/C [20] of the same molecule?
A: 103%

Q: And the viability, T/C [21]?
A: 97.6%

Q: What about the viability, T/C [22] of the same molecule?
A: 97.2%

Q: And the viability, T/C [23]?
A: 74.7%

Q: And the viability, T/C [24]?
A: 37.7%

Q: What about the viability, T/C [25] of the same molecule?
A: 54%

Q: What about the viability, T/C [26] of the same molecule?
A: 48.4%

Q: What about the viability, T/C [27] of the same molecule?
A: 40.2%

Q: And the viability, T/C [28]?
A: 32.2%

Q: And the viability, T/C [29]?
A: 28.4%

Q: What about the viability, T/C [30] of the same molecule?
A: 8.73%

Q: What about the viability, T/C [31] of the same molecule?
A: 24.4%

Q: What about the viability, T/C [32] of the same molecule?
A: 19.7%

Q: What about the viability, T/C [33] of the same molecule?
A: 16.2%

Q: And the viability, T/C [34]?
A: 11.3%

Q: What about the viability, T/C [35] of the same molecule?
A: 6.09%

Q: And the viability, T/C [36]?
A: 1.64%

Q: `Cn1ncnc1[C@H]1c2n[nH]c(=O)c3cc(F)cc(c23)N[C@@H]1c1ccc(F)cc1` + COc1c(OCCCN2CCOCC2)ccc2c3n(c(=NC(=O)c4cnc(N)nc4)nc12)CCN3 was tested. Which IC50 (second compound 0.00316 µM) did it give?
A: > 100 nM

Q: What about the IC50 (second compound 0.01 µM) of the same molecule?
A: > 100 nM

Q: What about the IC50 (second compound 0.0316 µM) of the same molecule?
A: > 100 nM

Q: What about the IC50 (second compound 0.1 µM) of the same molecule?
A: > 100 nM

Q: What about the IC50 (second compound 0.316 µM) of the same molecule?
A: < 0.316 nM

Q: And the IC50 (second compound 1 µM)?
A: < 0.316 nM

Q: And the viability, T/C (second compound 0.00316 µM, first compound 0.000316 µM)?
A: 99.2%

Q: What about the viability, T/C (second compound 0.00316 µM, first compound 0.001 µM) of the same molecule?
A: 101%

Q: What about the viability, T/C (second compound 0.00316 µM, first compound 0.00316 µM) of the same molecule?
A: 107%

Q: And the viability, T/C (second compound 0.00316 µM, first compound 0.01 µM)?
A: 95.2%

Q: And the viability, T/C [1]?
A: 92.5%

Q: And the viability, T/C [2]?
A: 94.1%

Q: And the viability, T/C (second compound 0.01 µM, first compound 0.000316 µM)?
A: 93.8%

Q: And the viability, T/C (second compound 0.01 µM, first compound 0.001 µM)?
A: 95.7%

Q: And the viability, T/C (second compound 0.01 µM, first compound 0.00316 µM)?
A: 97.9%

Q: And the viability, T/C (second compound 0.01 µM, first compound 0.01 µM)?
A: 97.7%

Q: And the viability, T/C [7]?
A: 96.9%

Q: And the viability, T/C [8]?
A: 102%

Q: What about the viability, T/C (second compound 0.0316 µM, first compound 0.000316 µM) of the same molecule?
A: 96.9%

Q: What about the viability, T/C (second compound 0.0316 µM, first compound 0.001 µM) of the same molecule?
A: 99.3%

Q: What about the viability, T/C (second compound 0.0316 µM, first compound 0.00316 µM) of the same molecule?
A: 113%

Q: What about the viability, T/C (second compound 0.0316 µM, first compound 0.01 µM) of the same molecule?
A: 98%

Q: What about the viability, T/C [13] of the same molecule?
A: 97%

Q: And the viability, T/C [14]?
A: 95.7%

Q: And the viability, T/C (second compound 0.1 µM, first compound 0.000316 µM)?
A: 111%

Q: What about the viability, T/C (second compound 0.1 µM, first compound 0.001 µM) of the same molecule?
A: 93.6%

Q: And the viability, T/C (second compound 0.1 µM, first compound 0.00316 µM)?
A: 88.5%

Q: What about the viability, T/C (second compound 0.1 µM, first compound 0.01 µM) of the same molecule?
A: 81%

Q: What about the viability, T/C [19] of the same molecule?
A: 89.4%

Q: And the viability, T/C [20]?
A: 63.7%

Q: And the viability, T/C (second compound 0.316 µM, first compound 0.000316 µM)?
A: 45.1%

Q: And the viability, T/C (second compound 0.316 µM, first compound 0.001 µM)?
A: 41%

Q: And the viability, T/C (second compound 0.316 µM, first compound 0.00316 µM)?
A: 31.9%

Q: What about the viability, T/C (second compound 0.316 µM, first compound 0.01 µM) of the same molecule?
A: 36.2%

Q: And the viability, T/C [25]?
A: 37%

Q: What about the viability, T/C [26] of the same molecule?
A: 29.8%

Q: What about the viability, T/C (second compound 1 µM, first compound 0.000316 µM) of the same molecule?
A: 29.8%

Q: What about the viability, T/C (second compound 1 µM, first compound 0.001 µM) of the same molecule?
A: 24.9%

Q: And the viability, T/C (second compound 1 µM, first compound 0.00316 µM)?
A: 23.1%

Q: And the viability, T/C (second compound 1 µM, first compound 0.01 µM)?
A: 19.5%

Q: And the viability, T/C [31]?
A: 19.4%

Q: What about the viability, T/C [32] of the same molecule?
A: 22.3%
